Measured values as given in patent US12016334B2, “Composition comprising sulphated galactose, and implementations thereof” (priority 2018, dated 2024).

System: Alternaria solani
Assay: Detached tomato leaf antifungal assay
Type: in vivo
Settings: for size of the fungus induced damage compared to untreated control: 80 mg/L spray

| Compound | fungal lesion size compared to untreated control (8 mg/L spray) | size of the fungus induced damage compared to untreated control |
| --- | --- | --- |
| O=C[C@H](O)[C@@H](O)[C@@H](OS(=O)(=O)O)[C@H](O)CO [Gal-S, D-galactose-4-O-sulphate] | does not show significant reduction in the fungal lesion size | significant reduction in the size of the fungus induced damage |
| O=Cc1ccc(CO)o1 [HMF, Hydroxymethylfurfural] | – | significant reduction in the size of the fungus induced damage |
